Reference: US12486227B2, “Small molecules for cancer therapy that reduce the expression of transcription factors KLF5 and EGR-1” (University of Florida Research Foundation, Incorporated, priority 2019, dated 2025)
pEC50, pIC50: −log10 of the molar value. Like-named read-outs stand apart in the source and are kept apart here.

Tests used:
human KLF5 promoter = assay: KLF5 promoter activity luciferase assay in DLD-1/pGL4.18hKLF5p cells; assay type: cell-based; details: Homo sapiens, DLD-1
Method: To examine the impact of these compounds on viability of CRC cell lines, we performed cell proliferation and cell growth assays using DLD-1 and HCT116 CRC cells. […] KLF5 promoter activity assay. DLD-1/pGL4.18hKLF5p cells were seeded in 96 well plate format and treated with DMSO or with test compounds dissolved in DMSO in the range of 0.001 to 20 μM final concentration for 24 h and the human KLF5 promoter activity was determined with the ONE-Glo luciferase assay system (Promega) using a SpectramMax M3 (Molecular Devices) plate reader. The IC50 values were calculated using GraphPad Prism version 5.00 for Windows (GraphPad Software) (22).

[1] = test system: HT-29 colorectal cancer cell line; assay: MTT growth assay, HT-29; assay type: cell-based; details: Homo sapiens, Table 1
From the text: The observed activity is greater than that previously seen for ML264.

EGR-1 = assay: Western blot of EGR-1 protein levels in DLD-1 cells; assay type: cell-based, human; details: 1 μM and 10 μM, 24 h
Method: We have studied the effects of SR18662 upon lowering KLF5 levels in colon cancer cell lines. […] The levels of the protein EGR-1 are lowered as well. In this experiment the test compounds were at 1 μM and 10 μM, and protein levels were measured after 24 h. […] The study was also repeated using HCT-116 cells rather than DLD-1 cells, with similar results. These compounds appear to dose-dependently reduce levels of KLF5 and EGR-1 proteins.
(§1) Western blot analysis. Total protein was extracted from cells with Laemmli buffer and the analysis was performed as described previously (24).

DLD-1 cells = assay: Apoptosis assay (Annexin V/PI, FACS), DLD-1; assay type: cell-based, human
Method: We performed an apoptosis assay using DLD-1 and HCT116 cells treated with vehicle or 1 μM or 10 μM of test compounds over the course of three days with Annexin V/P1 stain in combination with FACS analysis. […] This is accompanied by an increase in the population of cells in early and late apoptosis, as well as an increase in the dead cell population over the three days of treatment. […] This effect was more pronounced upon treatment with SR18662 than ML264 or SR15006 (FIGS. 4D-F). When a lower concentration (1 μM) of test compounds was used, only a small increase of the population of cells undergoing early apoptosis was seen after 72 h treatment with SRI8662.
Cell proliferation, cell cycle and apoptosis assays. For cell proliferation experiments, cell cycle, and apoptosis determination, DLD-1 and HCT116 cells were treated with 1 or 10 μM of each compound or with vehicle (DMSO). The cells were collected at 24, 48, and 72 h post-treatment and analyzed as previously described (24). Each experiment was performed in triplicate.

MAPK pathway = assay: Western blot of MAPK signaling pathway components; assay type: cell-based, human; details: DLD-1 and HCT116, 10 μM, 72 h
From the text: SR18662 negatively regulates MAPK and WNT signaling pathway and cyclin levels. Myriad publications have shown that in both in vitro and in vivo contexts KLF5 is regulated by MAPK and WNT signaling pathways and that KLF5, in turn, has the ability to modulate the activity of these pathways (14, 18, 26-32). We have previously shown that treatment of CRCs with ML264 results in decreased activity of both the MAPK and WNT signaling pathways (24). Because SR15006 and SRI8662 are structurally related to ML264, we decided to investigate their ability to alter the expression levels of the components of these pathways. Thus, we treated DLD-1 and HCT116 CRCs with DMSO (vehicle) and tested compounds at 1 μM or 10 μM, collecting the cells for western blot analysis at 24, 48, and 72 h. […] Similar effects were seen when both cell lines were treated these compounds at 1 μM. Furthermore, the inhibitory effects of SR18662 on the components of the MAPK signaling pathway we observed at earlier time points than were apparent following treatment with ML264 or SR15006.
as §1

[2] = test system: DLD-1-derived tumor xenografts; assay: DLD-1 xenograft tumor growth in nude mice; assay type: in vivo, mouse
Method: SR18862 inhibits the growth of CRC xenografts in vivo. To evaluate SRI8662 in an in vivo model we used CRC cells for a mouse xenograft study. As described in more detail in the Examples section, nude mice were injected with DLD-1 CRC cells. Tumors were allowed to grow to an approximate size of 100 mm^3, and then mice were injected with vehicle or with varied concentrations of SR18662, given once a day or twice a day for five days, followed by two days without injection, and then followed by five days with injections. The experiment was completed the day after the last injection. […] Significant differences in tumor size are apparent at the end of the treatment schedule (FIG. 6B). To further characterize the impact of SR18662 on the features of isolated tumors, we compared vehicle-treated mice with mice that had been treated with SR18662 twice a day. […] Because SR18662 had induced cell apoptosis and death in the in vitro setting, we stained the xenografts with PanCK and TUNEL to estimate the levels of apoptosis in the in vivo context.
Xenografts. All mice studies were approved by the Stony Brook University Institutional Animal Care and Use Committee (IACUC) and performed in accordance with institutional policies and NIH guidelines. […] Tumor volume was determined by caliper measurement and calculated by the established method (25). […] Mice were monitored and weighed every two days. […]

## CS(=O)(=O)N1CCN(C(=O)CNC(=O)/C=C/c2ccc(Cl)c(Cl)c2)CC1 [Example 9, (E)-3-(3,4-dichlorophenyl)-N-(2-(4-(methylsulfonyl)piperazin-1-yl)-2-oxoethyl)acrylamide]
Human KLF5 promoter; 24 h treatment, FIG. 1B, read-out: IC50, human KLF5 promoter activity
  pIC50: 8.36
Human KLF5 promoter; Table 1, comparison of ML264 and SR18662, read-out: luciferase IC50
  pIC50: 8.36
Human KLF5 promoter; Table 2, read-out: Approximate potency (EC50 · mol/L) (luciferase)
  pEC50: 8.36
[1]
  EC50: 40 nM
EGR-1
  EGR-1 protein levels by Western blot: lowered
DLD-1 cells; DLD-1, 1 μM, 48 h and 72 h
  healthy cell count and apoptosis: decrease in healthy cell count at 48 h and 72 h and an increase in early and late apoptosis
DLD-1 cells; DLD-1, 10 μM, 48 and 72 h
  population of healthy cells: significant decrease in the population of healthy cells
MAPK pathway
  expression levels of MAPK pathway components: negatively regulated the expression levels of the components of the MAPK pathway
[2]; i.p., 5-25 mg/kg once or twice a day
  tumor growth vs vehicle-treated mice: dose-dependent reduction in tumor growth
[2]; once a day 10 mg/kg
  growth of CRC xenografts: strong inhibitory effects
